Assay results published in the supplement of paper PMC10307832.

Experiments:
Test in all cases: relative viability (nuclei count vs DMSO), 5 days (fraction); higher = more cells survive
NCI-H2085 = test system: NCI-H2085
How it was run: (§1)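 One day after seeding in 1536-well plates, lung cancer cell lines were dosed by pin tool. Dosing was either single-drug or a fixed anchor-drug dose plus five library-drug doses (not always all listed) in √10 steps. After 5 days, nuclei were stained in one fix-and-stain step and counted on 4× images, and relative viability is the nuclei count of treated wells over that of vehicle wells, given as the median of duplicate plates.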

NCI-H661 = test system: NCI-H661
How it was run: as §1

LXF-289 = test system: LXF-289
How it was run: as §1

NCI-H1437 = test system: NCI-H1437
How it was run: as §1

ChaGo-K-1 = test system: ChaGo-K-1
How it was run: as §1

NCI-H441 = test system: NCI-H441
How it was run: as §1

EPLC-272H = test system: EPLC-272H
How it was run: as §1

NCI-H1793 = test system: NCI-H1793
How it was run: as §1

NCI-H3122 = test system: NCI-H3122
How it was run: as §1

LCLC-97TM1 = test system: LCLC-97TM1
How it was run: as §1

NCI-H596 = test system: NCI-H596
How it was run: as §1

HARA = test system: HARA
How it was run: as §1

CCNC(=O)c1noc(-c2cc(C(C)C)c(O)cc2O)c1-c1ccc(CN2CCOCC2)cc1 [Luminespib] + O=C(c1cc(Cc2n[nH]c(=O)c3ccccc23)ccc1F)N1CCN(C(=O)C2CC2)CC1 [Olaparib] (partner 8 µM) was tested, and the relative viability (NCI-H2085; first compound 0.002 µM) was 0.78, the relative viability (NCI-H2085; first compound 0.006325 µM) was 0.742 and the relative viability (NCI-H2085; first compound 0.02 µM) was 0.766. The relative viability (NCI-H2085; first compound 0.06325 µM) was 0.425, the relative viability (NCI-H2085; first compound 0.2 µM) was 0.337 and the relative viability (NCI-H661; first compound 0.002 µM) was 0.754. For the same molecule, the relative viability (NCI-H661; first compound 0.006325 µM) was 0.804, the relative viability (NCI-H661; first compound 0.02 µM) was 0.807 and the relative viability (NCI-H661; first compound 0.06325 µM) was 0.414. For the same molecule, the relative viability (NCI-H661; first compound 0.2 µM) was 0.3, the relative viability (LXF-289; first compound 0.002 µM) was 1.01 and the relative viability (LXF-289; first compound 0.006325 µM) was 1.03. For the same molecule, the relative viability (LXF-289; first compound 0.02 µM) was 1.2, the relative viability (LXF-289; first compound 0.06325 µM) was 0.99 and the relative viability (LXF-289; first compound 0.2 µM) was 0.805. For the same molecule, the relative viability (NCI-H1437; first compound 0.002 µM) was 0.806, the relative viability (NCI-H1437; first compound 0.006325 µM) was 0.63 and the relative viability (NCI-H1437; first compound 0.02 µM) was 0.684. It also gave a relative viability (NCI-H1437; first compound 0.06325 µM) of 0.259, a relative viability (NCI-H1437; first compound 0.2 µM) of 0.211 and a relative viability (ChaGo-K-1; first compound 0.002 µM) of 0.42. It also gave a relative viability (ChaGo-K-1; first compound 0.006325 µM) of 0.407, a relative viability (ChaGo-K-1; first compound 0.02 µM) of 0.439 and a relative viability (ChaGo-K-1; first compound 0.06325 µM) of 0.452. It also gave a relative viability (ChaGo-K-1; first compound 0.2 µM) of 0.36, a relative viability (NCI-H441; first compound 0.002 µM) of 0.524 and a relative viability (NCI-H441; first compound 0.006325 µM) of 0.569. It also gave a relative viability (NCI-H441; first compound 0.02 µM) of 0.714, a relative viability (NCI-H441; first compound 0.06325 µM) of 0.119 and a relative viability (NCI-H441; first compound 0.2 µM) of 0.117. The relative viability (EPLC-272H; first compound 0.002 µM) was 0.812, the relative viability (EPLC-272H; first compound 0.006325 µM) was 0.702 and the relative viability (EPLC-272H; first compound 0.02 µM) was 0.709. The relative viability (EPLC-272H; first compound 0.06325 µM) was 0.0637, the relative viability (EPLC-272H; first compound 0.2 µM) was 0.082 and the relative viability (NCI-H1793; first compound 0.002 µM) was 0.999. It also gave a relative viability (NCI-H1793; first compound 0.006325 µM) of 0.975, a relative viability (NCI-H1793; first compound 0.02 µM) of 0.7 and a relative viability (NCI-H1793; first compound 0.06325 µM) of 0.117. It also gave a relative viability (NCI-H1793; first compound 0.2 µM) of 0.167, a relative viability (NCI-H3122; first compound 0.002 µM) of 0.626 and a relative viability (NCI-H3122; first compound 0.006325 µM) of 0.567. The relative viability (NCI-H3122; first compound 0.02 µM) was 0.68, the relative viability (NCI-H3122; first compound 0.06325 µM) was 0.56 and the relative viability (NCI-H3122; first compound 0.2 µM) was 0.646. For the same molecule, the relative viability (LCLC-97TM1; first compound 0.002 µM) was 0.421, the relative viability (LCLC-97TM1; first compound 0.006325 µM) was 0.5 and the relative viability (LCLC-97TM1; first compound 0.06325 µM) was 0.401. It also gave a relative viability (LCLC-97TM1; first compound 0.2 µM) of 0.257, a relative viability (NCI-H596; first compound 0.002 µM) of 0.752 and a relative viability (NCI-H596; first compound 0.006325 µM) of 0.695. For the same molecule, the relative viability (NCI-H596; first compound 0.02 µM) was 0.749, the relative viability (NCI-H596; first compound 0.06325 µM) was 0.617 and the relative viability (NCI-H596; first compound 0.2 µM) was 0.602. It also gave a relative viability (HARA; first compound 0.002 µM) of 0.425 and a relative viability (HARA; first compound 0.006325 µM) of 0.814.
